Results published in ChEMBL document CHEMBL4177539, “Discovery of N-((3R,4R)-4-Fluoro-1-(6-((3-methoxy-1-methyl-1H-pyrazol-4-yl)amino)-9-methyl-9H-purin-2-yl)pyrrolidine-3-yl)acrylamide (PF-06747775) through Structure-Based Drug Design: A High Affinity Irreversible Inhibitor Targeting Oncogenic EGFR Mutants with Selectivity over Wild-Type EGFR” (J Med Chem, 2017).

Assay: physchem
Details: octanol/water

- logD: 2.7
Structure (SMILES): C=CC(=O)N[C@@H]1CCN(c2nc(Nc3cnn(C)c3)c3ncn(C(C)C)c3n2)C1
